{"source": "PubChem BioAssay AID216", "about": "(DTP/NCI, 2004)", "system": "BDF1 mice, P288 leukemia ip, survival T/C", "assay": "NCI In Vivo Anticancer Drug Screen. Data for tumor model P288 Lymphocytic Leukemia (intraperitoneal) in B6D2F1 (BDF1) mice", "conditions": "endpoint: survival time, mean or median, higher = longer survival", "procedure": "The antitumor activity of compounds was measured in mice bearing transplantable tumors. Survival or tumor size were measured and the results are expressed as the measurement made in the treated group (T) divided by the measurement made in the vehicle treated control group (C). The tumor model used in this assay is P288 Lymphocytic Leukemia (intraperitoneal) in B6D2F1 (BDF1) mice", "key": {"[1]": {"conditions": "dose: 5.0 mg/kg/injection, schedule: Q01DX010 (ip), vehicle: saline"}, "[2]": {"conditions": "dose: 10.0 mg/kg/injection, schedule: Q01DX010 (ip), vehicle: saline"}, "[3]": {"conditions": "dose: 20.0 mg/kg/injection, schedule: Q01DX010 (ip), vehicle: saline"}, "[4]": {"conditions": "dose: 40.0 mg/kg/injection, schedule: Q01DX010 (ip), vehicle: saline"}, "[5]": {"conditions": "dose: 62.5 mg/kg/injection, schedule: Q01DX Z (ip), vehicle: carboxymethylcellulose (CMC)"}, "[6]": {"conditions": "dose: 125.0 mg/kg/injection, schedule: Q01DX Z (ip), vehicle: carboxymethylcellulose (CMC)"}, "[7]": {"conditions": "dose: 250.0 mg/kg/injection, schedule: Q01DX Z (ip), vehicle: carboxymethylcellulose (CMC)"}}, "note": "Where “and” joins values, the source holds several entries; their conditions need not be identical. Equal entries are not always repeated. Toxic doses and inconclusive results are not listed."}
{"smiles": "N#Cc1cn(C2OC(CO)C(O)C2O)c2ncnc(N)c12", "note": "(centres undefined)", "values": [{"measurement": "T/C", "setting": "dose: 0.12 mg/kg/injection, schedule: Q01DX Z (ip), vehicle: carboxymethylcellulose (CMC)", "value": "114 % of control"}, {"measurement": "T/C", "setting": "dose: 0.25 mg/kg/injection, schedule: Q01DX Z (ip), vehicle: carboxymethylcellulose (CMC)", "value": "106 % of control"}, {"measurement": "T/C", "setting": "dose: 0.5 mg/kg/injection, schedule: Q01DX Z (ip), vehicle: carboxymethylcellulose (CMC)", "value": "93 % of control"}, {"measurement": "T/C", "setting": "dose: 1.0 mg/kg/injection, schedule: Q01DX Z (ip), vehicle: carboxymethylcellulose (CMC)", "value": "106 % of control"}, {"measurement": "T/C", "setting": "dose: 8.0 micrograms/kg/injection, schedule: Q01DX Z (ip), vehicle: carboxymethylcellulose (CMC)", "value": "103 % of control"}, {"measurement": "T/C", "setting": "dose: 16.0 micrograms/kg/injection, schedule: Q01DX Z (ip), vehicle: carboxymethylcellulose (CMC)", "value": "103 % of control"}, {"measurement": "T/C", "setting": "dose: 31.0 micrograms/kg/injection, schedule: Q01DX Z (ip), vehicle: carboxymethylcellulose (CMC)", "value": "97 % of control"}, {"measurement": "T/C", "setting": "dose: 31.3 micrograms/kg/injection, schedule: Q01DX010 (ip), vehicle: saline", "value": "155 % of control"}, {"measurement": "T/C", "setting": "dose: 62.5 micrograms/kg/injection, schedule: Q01DX010 (ip), vehicle: saline", "value": "105 % of control"}, {"measurement": "T/C", "setting": "dose: 125.0 micrograms/kg/injection, schedule: Q01DX010 (ip), vehicle: saline", "value": "105 % of control"}, {"measurement": "T/C", "setting": "dose: 250.0 micrograms/kg/injection, schedule: Q01DX010 (ip), vehicle: saline", "value": "105 % of control"}]}
{"smiles": "O=c1[nH]c(=O)n(C2CC(O)C(CO)O2)cc1F", "note": "(centres undefined)", "values": [{"measurement": "T/C", "setting": "[1]", "value": "106 % of control"}, {"measurement": "T/C", "setting": "[2]", "value": "109 % of control and 100 % of control"}, {"measurement": "T/C", "setting": "[3]", "value": "112 % of control and 100 % of control"}, {"measurement": "T/C", "setting": "dose: 25.0 mg/kg/injection, schedule: Q01DX Z (ip), vehicle: carboxymethylcellulose (CMC)", "value": "111 % of control"}, {"measurement": "T/C", "setting": "[4]", "value": "113 % of control"}, {"measurement": "T/C", "setting": "dose: 80.0 mg/kg/injection, schedule: Q01DX010 (ip), vehicle: saline", "value": "118 % of control"}, {"measurement": "T/C", "setting": "dose: 100.0 mg/kg/injection, schedule: Q01DX Z (ip), vehicle: carboxymethylcellulose (CMC)", "value": "156 % of control and 163 % of control"}, {"measurement": "T/C", "setting": "dose: 200.0 mg/kg/injection, schedule: Q01DX Z (ip), vehicle: carboxymethylcellulose (CMC)", "value": "111 % of control and 124 % of control"}, {"measurement": "T/C", "setting": "dose: 400.0 mg/kg/injection, schedule: Q01DX Z (ip), vehicle: carboxymethylcellulose (CMC)", "value": "108 % of control"}, {"measurement": "T/C", "setting": "dose: 800.0 mg/kg/injection, schedule: Q01DX Z (ip), vehicle: carboxymethylcellulose (CMC)", "value": "86 % of control"}]}
{"smiles": "C=CC(CN1CC1)OC(C)=O", "note": "(centres undefined)", "values": [{"measurement": "T/C", "setting": "dose: 0.47 mg/kg/injection, schedule: Q01DX Z (ip), vehicle: carboxymethylcellulose (CMC)", "value": "109 % of control"}, {"measurement": "T/C", "setting": "dose: 0.95 mg/kg/injection, schedule: Q01DX Z (ip), vehicle: carboxymethylcellulose (CMC)", "value": "101 % of control"}, {"measurement": "T/C", "setting": "dose: 1.9 mg/kg/injection, schedule: Q01DX Z (ip), vehicle: carboxymethylcellulose (CMC)", "value": "115 % of control and 90 % of control"}, {"measurement": "T/C", "setting": "dose: 2.0 mg/kg/injection, schedule: Q01DX010 (ip), vehicle: saline", "value": "94 % of control"}, {"measurement": "T/C", "setting": "dose: 3.8 mg/kg/injection, schedule: Q01DX Z (ip), vehicle: carboxymethylcellulose (CMC)", "value": "108 % of control"}, {"measurement": "T/C", "setting": "dose: 4.0 mg/kg/injection, schedule: Q01DX010 (ip), vehicle: saline", "value": "94 % of control"}, {"measurement": "T/C", "setting": "dose: 8.0 mg/kg/injection, schedule: Q01DX010 (ip), vehicle: saline", "value": "115 % of control"}, {"measurement": "T/C", "setting": "dose: 16.0 mg/kg/injection, schedule: Q01DX010 (ip), vehicle: saline", "value": "115 % of control"}]}
{"smiles": "OCC1OC(n2cnc3c(Cl)ncnc32)C(O)C1O", "note": "(centres undefined)", "values": [{"measurement": "T/C", "setting": "[5]", "value": "104 % of control"}, {"measurement": "T/C", "setting": "[6]", "value": "101 % of control"}, {"measurement": "T/C", "setting": "[7]", "value": "92 % of control"}, {"measurement": "T/C", "setting": "dose: 500.0 mg/kg/injection, schedule: Q01DX Z (ip), vehicle: carboxymethylcellulose (CMC)", "value": "106 % of control"}]}
{"smiles": "CC[n+]1c(-c2ccccc2)c2cc(N)ccc2c2ccc(N)cc21", "values": [{"measurement": "T/C", "setting": "dose: 2.5 mg/kg/injection, schedule: Q01DX010 (ip), vehicle: saline", "value": "152 % of control"}, {"measurement": "T/C", "setting": "[1]", "value": "170 % of control and 228 % of control"}, {"measurement": "T/C", "setting": "[2]", "value": "223 % of control and 285 % of control"}, {"measurement": "T/C", "setting": "[3]", "value": "158 % of control and 185 % of control"}, {"measurement": "T/C", "setting": "[4]", "value": "100 % of control"}]}
{"smiles": "Clc1ncnc2nc[nH]c12", "values": [{"measurement": "T/C", "setting": "dose: 7.5 mg/kg/injection, schedule: Q01DX010 (ip), vehicle: saline", "value": "88 % of control"}, {"measurement": "T/C", "setting": "dose: 30.0 mg/kg/injection, schedule: Q01DX010 (ip), vehicle: saline", "value": "94 % of control"}, {"measurement": "T/C", "setting": "dose: 31.25 mg/kg/injection, schedule: Q01DX Z (ip), vehicle: carboxymethylcellulose (CMC)", "value": "86 % of control and 95 % of control"}, {"measurement": "T/C", "setting": "[5]", "value": "101 % of control and 102 % of control and 105 % of control"}, {"measurement": "T/C", "setting": "[6]", "value": "112 % of control and 114 % of control and 97 % of control"}, {"measurement": "T/C", "setting": "[7]", "value": "106 % of control (2×) and 110 % of control"}]}
